{
  "source": "BindingDB's records for doi:10.1074/jbc.M109.038984",
  "about": "(Spanish National Cancer Research Center (Cnio), 2009)",
  "note": "pIC50: −log10 of the molar value.",
  "data": [
    {"molecular_target": "Phosphatidylinositol 4,5-bisphosphate 3-kinase catalytic subunit gamma isoform (Homo sapiens, UniProt P48736)", "sequence (P48736 whole entry, canonical isoform)": "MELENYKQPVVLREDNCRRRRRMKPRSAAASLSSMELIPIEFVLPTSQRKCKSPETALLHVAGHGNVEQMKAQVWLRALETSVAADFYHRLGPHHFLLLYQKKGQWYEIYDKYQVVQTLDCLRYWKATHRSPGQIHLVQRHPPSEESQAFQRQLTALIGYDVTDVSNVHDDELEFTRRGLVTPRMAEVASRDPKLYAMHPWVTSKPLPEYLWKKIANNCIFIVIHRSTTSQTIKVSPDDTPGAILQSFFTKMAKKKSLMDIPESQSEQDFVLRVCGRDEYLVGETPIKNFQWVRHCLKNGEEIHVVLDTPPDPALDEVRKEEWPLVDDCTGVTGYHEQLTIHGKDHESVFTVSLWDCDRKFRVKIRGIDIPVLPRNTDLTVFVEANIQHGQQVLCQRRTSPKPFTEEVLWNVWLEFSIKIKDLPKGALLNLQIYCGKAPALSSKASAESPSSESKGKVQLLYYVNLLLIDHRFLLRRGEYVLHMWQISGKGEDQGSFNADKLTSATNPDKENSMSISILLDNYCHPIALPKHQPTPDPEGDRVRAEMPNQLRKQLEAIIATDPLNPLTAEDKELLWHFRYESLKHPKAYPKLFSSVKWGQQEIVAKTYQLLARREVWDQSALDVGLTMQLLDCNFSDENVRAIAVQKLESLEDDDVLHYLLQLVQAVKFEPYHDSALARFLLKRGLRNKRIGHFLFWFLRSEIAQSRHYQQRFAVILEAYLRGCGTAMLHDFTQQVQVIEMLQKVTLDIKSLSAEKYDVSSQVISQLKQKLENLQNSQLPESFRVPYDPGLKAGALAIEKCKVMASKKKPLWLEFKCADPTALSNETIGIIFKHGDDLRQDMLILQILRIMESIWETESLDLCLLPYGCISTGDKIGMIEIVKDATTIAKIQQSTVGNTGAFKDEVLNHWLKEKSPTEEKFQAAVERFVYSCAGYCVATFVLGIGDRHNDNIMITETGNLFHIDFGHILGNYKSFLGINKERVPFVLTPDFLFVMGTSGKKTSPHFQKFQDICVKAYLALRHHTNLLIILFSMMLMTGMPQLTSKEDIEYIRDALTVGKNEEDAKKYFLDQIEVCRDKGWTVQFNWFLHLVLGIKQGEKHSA", "assay": "Kinase Assay", "description": "(§1) Kinase assay using PI3K.", "values": [
      {"smiles": "Cn1ncc2c(N3CCOCC3)nc(-c3cccc(O)c3)nc21", "note": "[ETP-45658, 13]", "pIC50": 6.14}
    ]},
    {"molecular_target": "Phosphatidylinositol 4,5-bisphosphate 3-kinase catalytic subunit beta isoform (Homo sapiens, UniProt P42338)", "sequence (P42338 whole entry, canonical isoform)": "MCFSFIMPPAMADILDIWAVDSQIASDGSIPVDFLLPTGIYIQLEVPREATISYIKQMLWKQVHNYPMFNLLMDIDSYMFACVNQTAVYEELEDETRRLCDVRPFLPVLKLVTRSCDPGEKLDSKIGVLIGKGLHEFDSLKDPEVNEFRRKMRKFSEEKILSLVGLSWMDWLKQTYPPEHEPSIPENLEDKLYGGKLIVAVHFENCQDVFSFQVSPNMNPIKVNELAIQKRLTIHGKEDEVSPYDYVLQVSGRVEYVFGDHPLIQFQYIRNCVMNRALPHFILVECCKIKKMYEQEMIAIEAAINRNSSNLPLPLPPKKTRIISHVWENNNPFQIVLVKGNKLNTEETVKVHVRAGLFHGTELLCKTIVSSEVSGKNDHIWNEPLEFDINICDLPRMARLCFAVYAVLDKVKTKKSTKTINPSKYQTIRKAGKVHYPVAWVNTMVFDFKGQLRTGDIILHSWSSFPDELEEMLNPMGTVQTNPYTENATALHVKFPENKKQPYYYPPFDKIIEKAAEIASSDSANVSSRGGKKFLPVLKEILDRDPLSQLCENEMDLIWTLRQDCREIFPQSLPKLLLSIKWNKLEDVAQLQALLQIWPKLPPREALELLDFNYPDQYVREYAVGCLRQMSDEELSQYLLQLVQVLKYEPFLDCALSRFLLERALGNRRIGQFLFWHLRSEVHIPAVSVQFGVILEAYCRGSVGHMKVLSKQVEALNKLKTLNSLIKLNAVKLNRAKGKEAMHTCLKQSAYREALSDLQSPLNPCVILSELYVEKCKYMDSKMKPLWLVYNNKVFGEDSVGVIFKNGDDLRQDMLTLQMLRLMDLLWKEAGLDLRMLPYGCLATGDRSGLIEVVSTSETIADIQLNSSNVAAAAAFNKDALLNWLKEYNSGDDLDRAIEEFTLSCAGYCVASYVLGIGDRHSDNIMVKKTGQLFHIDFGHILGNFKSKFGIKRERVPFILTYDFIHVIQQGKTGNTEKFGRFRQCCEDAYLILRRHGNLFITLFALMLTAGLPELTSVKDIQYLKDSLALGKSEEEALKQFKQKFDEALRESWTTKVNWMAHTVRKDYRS", "assay": "Kinase Assay", "description": "as §1", "values": [
      {"smiles": "Cn1ncc2c(N3CCOCC3)nc(-c3cccc(O)c3)nc21", "note": "[ETP-45658, 13]", "pIC50": 6.89}
    ]},
    {"molecular_target": "Phosphatidylinositol 4,5-bisphosphate 3-kinase catalytic subunit alpha isoform (Homo sapiens, UniProt P42336)", "sequence (P42336 whole entry, canonical isoform)": "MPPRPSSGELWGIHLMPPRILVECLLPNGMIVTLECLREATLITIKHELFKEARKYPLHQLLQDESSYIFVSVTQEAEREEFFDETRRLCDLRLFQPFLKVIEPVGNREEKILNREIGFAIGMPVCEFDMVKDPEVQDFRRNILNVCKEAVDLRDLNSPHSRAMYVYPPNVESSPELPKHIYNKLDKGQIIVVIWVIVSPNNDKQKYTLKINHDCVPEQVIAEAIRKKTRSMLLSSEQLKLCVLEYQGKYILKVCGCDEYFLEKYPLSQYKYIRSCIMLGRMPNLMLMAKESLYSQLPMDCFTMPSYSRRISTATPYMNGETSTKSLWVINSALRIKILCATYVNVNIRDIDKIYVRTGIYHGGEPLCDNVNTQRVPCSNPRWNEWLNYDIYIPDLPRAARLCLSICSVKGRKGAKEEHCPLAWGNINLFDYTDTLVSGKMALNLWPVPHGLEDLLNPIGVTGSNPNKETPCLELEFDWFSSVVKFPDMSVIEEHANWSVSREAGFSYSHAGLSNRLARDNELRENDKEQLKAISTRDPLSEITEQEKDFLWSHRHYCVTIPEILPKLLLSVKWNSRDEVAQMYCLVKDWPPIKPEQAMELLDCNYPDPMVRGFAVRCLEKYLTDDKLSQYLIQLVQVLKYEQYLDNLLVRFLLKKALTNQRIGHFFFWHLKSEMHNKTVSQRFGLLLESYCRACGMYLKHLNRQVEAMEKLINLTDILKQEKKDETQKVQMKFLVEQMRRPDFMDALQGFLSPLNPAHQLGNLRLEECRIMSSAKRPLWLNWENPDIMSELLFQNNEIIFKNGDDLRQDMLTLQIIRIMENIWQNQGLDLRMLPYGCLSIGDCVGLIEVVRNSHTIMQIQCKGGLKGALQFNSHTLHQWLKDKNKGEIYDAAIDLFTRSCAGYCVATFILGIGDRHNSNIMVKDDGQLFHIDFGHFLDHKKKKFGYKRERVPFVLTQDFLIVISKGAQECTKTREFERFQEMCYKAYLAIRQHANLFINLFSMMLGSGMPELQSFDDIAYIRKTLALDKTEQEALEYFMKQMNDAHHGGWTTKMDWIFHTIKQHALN", "assay": "Kinase Assay", "description": "as §1", "values": [
      {"smiles": "COc1cccc(Nc2nc(N3CCOCC3)nc3c2cnn3C)c1", "pIC50": 6.40},
      {"smiles": "CN1CCN(c2nc(Nc3cccc(Cl)c3)c3cnn(C)c3n2)CC1", "note": "[ETP-5935]", "pIC50": 5.31},
      {"smiles": "CC1CN(c2nc(Nc3ccccc3)c3cnn(C)c3n2)CC(C)O1", "note": "(stereo unspecified) [ETP-6531]", "pIC50": 4.90},
      {"smiles": "COc1cccc(Nc2nc(N3CCN(C)CC3)nc3c2cnn3C)c1", "note": "[ETP-7146]", "pIC50": 5.04},
      {"smiles": "COc1cccc(Nc2nc(N3CCN(CCO)CC3)nc3c2cnn3C)c1", "note": "[ETP-8162]", "pIC50": 4.90},
      {"smiles": "Cn1ncc2c(OCc3ccccc3)nc(N3CCOCC3)nc21", "note": "[ETP-45415, 3a]", "pIC50": 4.45},
      {"smiles": "Cn1ncc2c(NCc3ccccc3)nc(N3CCOCC3)nc21", "note": "[ETP-45416, 3b]", "pIC50": 4.43},
      {"smiles": "Cn1ncc2c(Oc3ccc(Cl)cc3)nc(N3CCOCC3)nc21", "note": "[ETP-45419, 3d]", "pIC50": 5.26},
      {"smiles": "Cn1ncc2c(SCc3ccccc3)nc(N3CCOCC3)nc21", "note": "[ETP-45654, 3c]", "pIC50": "< 4.30"},
      {"smiles": "Cn1ncc2c(=O)[nH]c(N3CCOCC3)nc21", "note": "[ETP-45700, 6]", "pIC50": "< 4.30"},
      {"smiles": "CC(C)Oc1nc(N2CCOCC2)nc2c1cnn2C", "note": "[ETP-45797, 7]", "pIC50": 4.79},
      {"smiles": "Cn1ncc2c(-c3cccc(O)c3)nc(N3CCOCC3)nc21", "note": "[ETP-45798, 9]", "pIC50": 6.94},
      {"smiles": "Cn1ncc2c(-c3cccc(NS(C)(=O)=O)c3)nc(N3CCOCC3)nc21", "note": "[ETP-45799, 10]", "pIC50": 5.78},
      {"smiles": "COC(=O)c1cccc(-c2nc(N3CCOCC3)c3cnn(C)c3n2)c1", "note": "[ETP-45867, 14]", "pIC50": 6.08},
      {"smiles": "COc1cccc(-c2nc(N3CCOCC3)c3cnn(C)c3n2)c1", "note": "[ETP-45871, 15]", "pIC50": 5.24},
      {"smiles": "Cc1cccc(Oc2nc(N3CCOCC3)nc3c2cnn3C)c1", "note": "[ETP-45874, 11]", "pIC50": 6.01},
      {"smiles": "CSc1cccc(-c2nc(N3CCOCC3)c3cnn(C)c3n2)c1", "note": "[ETP-45875, 16]", "pIC50": 5.45},
      {"smiles": "CC(=O)Nc1cccc(-c2nc(N3CCOCC3)c3cnn(C)c3n2)c1", "note": "[ETP-45876, 17]", "pIC50": 5.15}
    ]},
    {"molecular_target": "T1, Phosphatidylinositol 4,5-bisphosphate 3-kinase catalytic subunit delta isoform (Homo sapiens, UniProt O00329)", "T1 sequence (O00329 whole entry)": "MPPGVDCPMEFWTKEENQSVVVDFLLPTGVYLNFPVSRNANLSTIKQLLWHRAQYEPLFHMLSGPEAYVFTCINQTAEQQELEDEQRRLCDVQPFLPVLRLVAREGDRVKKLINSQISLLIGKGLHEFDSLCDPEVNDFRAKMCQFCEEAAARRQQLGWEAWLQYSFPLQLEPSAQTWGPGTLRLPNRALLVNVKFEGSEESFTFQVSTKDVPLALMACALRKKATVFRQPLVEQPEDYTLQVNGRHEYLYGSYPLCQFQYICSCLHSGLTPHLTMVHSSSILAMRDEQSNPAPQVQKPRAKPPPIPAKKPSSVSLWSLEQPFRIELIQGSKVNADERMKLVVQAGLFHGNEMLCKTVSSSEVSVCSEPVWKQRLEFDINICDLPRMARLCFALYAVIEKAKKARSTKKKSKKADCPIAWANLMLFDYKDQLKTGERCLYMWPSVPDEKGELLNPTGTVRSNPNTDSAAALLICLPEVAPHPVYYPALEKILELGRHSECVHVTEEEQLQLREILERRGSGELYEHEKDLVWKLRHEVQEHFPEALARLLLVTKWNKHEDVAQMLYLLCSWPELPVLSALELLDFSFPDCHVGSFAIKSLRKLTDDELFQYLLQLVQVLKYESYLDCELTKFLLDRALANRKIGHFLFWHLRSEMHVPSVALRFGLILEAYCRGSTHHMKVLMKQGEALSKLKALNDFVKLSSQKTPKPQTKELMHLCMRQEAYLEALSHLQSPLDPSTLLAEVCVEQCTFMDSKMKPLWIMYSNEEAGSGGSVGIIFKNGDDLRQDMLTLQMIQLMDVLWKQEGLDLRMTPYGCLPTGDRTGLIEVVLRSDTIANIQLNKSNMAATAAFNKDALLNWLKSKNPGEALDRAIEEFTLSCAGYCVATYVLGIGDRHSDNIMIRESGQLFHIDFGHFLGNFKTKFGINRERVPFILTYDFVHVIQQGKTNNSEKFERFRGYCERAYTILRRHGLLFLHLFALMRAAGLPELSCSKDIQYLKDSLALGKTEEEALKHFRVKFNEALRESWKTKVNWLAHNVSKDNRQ", "assay": "Kinase Assay", "description": "as §1", "values": [
      {"smiles": "Cn1ncc2c(N3CCOCC3)nc(-c3cccc(O)c3)nc21", "note": "[ETP-45658, 13]", "pIC50": 7.52}
    ]}
  ]
}
